Earlier results, collected in patent US20250364101A1, “Dabigatran Dosing” (Closed Loop Medicine Ltd, priority 2023, published 2025).
Like-named read-outs stand apart in the source and are kept apart here.

Columns and labels:
[1] = not given; remark: listed apart in the source
[2] = not given; remark: listed apart in the source

risk of intracranial bleeds (compared with adjusted-dose warfarin) | Change in Drug Level Exposure (AUC), increase ([1]; Amiodarone) [% increase] | Change in Drug Level Exposure (AUC) ([1]; CrCl = 30, relative to median CrCl of 69) [fold] | Change in Drug Level Exposure (AUC) ([1]; CrCl = 50, relative to median CrCl of 69) [fold] | Change in Drug Level Exposure (AUC), decrease ([1]; PPIs) [% decrease] | Change in Drug Level Exposure (AUC), increase ([1]; Verapamil) [% increase] | increase in distribution volume (Vd) ([1]; above 80 kg) [% per kg] | Change in Drug Level Exposure (AUC), increase ([1]; females compared to men) | effect of low weight on Cmax ([1]; low weight) | Change in Drug Level Exposure (AUC), increase ([1]; patients with HF) | accumulation of the drug ([2]; daily doses of approximately 150-300 mg) | elimination via the kidney as share of total clearance ([2]; in vivo) [%] | remainder going into the faeces ([2]; oral) [%] | relationship between maximal plasma level and dose administered ([2]; single dose) | effect of food on total absorption ([2]; with food) | SMILES | outcome compared with warfarin (patients with nonvalvular AF) | Change in Drug Level Exposure (AUC), increase ([1]; South Asians compared to other ethnicities) | Change in activity: bleeding ([1]; coadministration of Asprin, clopidogrel) | Change in Drug Level Exposure (AUC), increase per year of age ([1]; older compared to 72 yr)
small reduction | – | – | – | – | – | – | – | – | – | – | – | – | – | – | CCCCCCOC(=O)NC(=N)c1ccc(NCc2nc3cc(C(=O)N(CCC(=O)OCC)c4ccccn4)ccc3n2C)cc1 [Dabigatran etexilate] | superior to warfarin | – | – | –
– | 12 | 1.8 | 1.3 | ~13 | 23 | 0.8 | ~9% increase in females compared to men | will increase | ~7% increase in patients with HF | approximately 1.7 fold | 80 | ~90 | linear relationship | does not affect | [H]/N=C(/N)c1ccc(NCc2nc3cc(C(=O)N(CCC(=O)O)c4ccccn4)ccc3n2C)cc1 [dabigatran] | – | ~26% increase in South Asians compared to other ethnicities | Coadministration will increase chance of bleeding | 0.41% increase per year older compared to 72 yr % per year
